# Like-named read-outs stand apart in the source and are kept apart here.
# Key:
# FAP = test system: FAP; design: method as in PMID 24617858; conditions: cited from earlier work
# recombinant human FAP = molecular target: T1, recombinant human FAP (Homo sapiens, UniProt Q12884); assay: In vitro FAP fluorescence enzyme inhibition assay (Suc-Gly-Pro-AMC substrate); format: biochemical; conditions: nonradioactive Ga-complexed standards
# T1 construct: purchased Bio-legend, San Diego, CA, USA
# T1 sequence (Q12884 1-760): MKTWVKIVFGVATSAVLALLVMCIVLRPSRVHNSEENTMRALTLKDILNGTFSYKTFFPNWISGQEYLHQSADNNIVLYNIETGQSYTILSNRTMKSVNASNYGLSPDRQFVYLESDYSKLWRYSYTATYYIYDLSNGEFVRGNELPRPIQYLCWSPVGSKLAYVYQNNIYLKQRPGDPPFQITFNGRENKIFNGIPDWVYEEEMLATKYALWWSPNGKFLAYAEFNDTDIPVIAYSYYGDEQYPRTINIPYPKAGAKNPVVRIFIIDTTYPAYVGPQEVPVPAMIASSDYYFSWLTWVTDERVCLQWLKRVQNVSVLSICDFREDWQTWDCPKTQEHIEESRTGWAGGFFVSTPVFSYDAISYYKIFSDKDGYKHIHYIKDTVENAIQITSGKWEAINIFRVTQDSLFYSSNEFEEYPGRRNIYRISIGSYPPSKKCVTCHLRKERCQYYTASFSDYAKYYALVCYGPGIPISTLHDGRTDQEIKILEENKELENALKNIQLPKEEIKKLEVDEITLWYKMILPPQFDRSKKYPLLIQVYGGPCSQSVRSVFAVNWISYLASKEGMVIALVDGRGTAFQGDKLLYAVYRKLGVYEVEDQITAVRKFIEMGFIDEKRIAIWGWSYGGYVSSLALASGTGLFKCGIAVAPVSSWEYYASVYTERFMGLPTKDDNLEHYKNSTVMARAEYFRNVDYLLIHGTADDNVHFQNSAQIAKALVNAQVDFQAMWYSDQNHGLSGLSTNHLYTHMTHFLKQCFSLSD
# Experimental: The binding affinities of Ga-AV02053 and Ga-AV02070 to human FAP were measured by an enzyme inhibition assay using Suc-Gly-Pro-AMC as the FAP substrate. The human FAP enzymatic activity on the substrate was inhibited by Ga-AV02053 and Ga-AV02070 in a dose dependent-manner (Figure 2).
# The half maximal inhibitory concentration (IC50) values of the tested compounds for FAP were measured by in vitro enzymatic assay. The recombinant human FAP (Bio-legend, San Diego, CA, USA; 0.2 µg/mL, 50 µL) was added into costar 96-well plate. PBS and varied concentrations (0.2 pM to 2 µM) of tested nonradioactive Ga-complexed standards were added to each well (in duplicate) containing the recombinant human FAP. After being incubated for 30 min at 37 °C, 50 µL of Suc-Gly-Pro-AMC (2 µM, Bachem, Torrance, CA, USA) was added to each well. The fluorescent signals were acquired at 15, 30, 45, and 60 min using FlexStation 3 Multi-Mode Microplate Reader with excitation at 380 nm and emission at 460 nm. The IC50 (FAP) values were calculated using “nonlinear fit model” built-in model in GraphPad Prism 7.02 software.
# [1] = test system: HEK293T:hFAP tumor xenografts; assay: PET/CT imaging in mice bearing HEK293T:hFAP tumor xenografts; format: in vivo; conditions: PET imaging and biodistribution, 1 h post-injection
# Experimental: Both tracers were excreted primarily through the renal pathway and had very low background uptake in normal organs/tissues. Although [^68Ga]Ga-AV02053 and [^68Ga]Ga-AV02070 had lower tumor uptake than that of previously reported [^68Ga]Ga-FAPI-04, both of them had much lower background uptake, resulting in better tumor-to-background contrast than that of [^68Ga]Ga-FAPI-04 (Figure 3).
# (§1) Imaging and biodistribution studies were performed using male NOD.Cg-Rag1tm1Mom Il2rgtm1Wjl/SzJ (NRG) mice following previously published procedures. The experiments were conducted according to the guidelines established by the Canadian Council on Animal Care and approved by Animal Ethics Committee of the University of British Columbia. The mice were briefly sedated by inhalation of 2.5% isoflurane in oxygen, and HEK293T:hFAP cells (8.5 × 10^6 cells) were inoculated subcutaneously behind the left shoulder. When the tumor grew to 5–8 mm in ~3 weeks, the mice were used for PET/CT imaging and biodistribution studies.
# PET/CT imaging experiments were carried out using a Siemens (Knoxville, TN, USA) Inveon micro PET/CT scanner. Each tumor-bearing mouse was injected with ~4–6 MBq of ^68Ga-labeled tracer through a lateral caudal tail vein under 2.5% isoflurane in oxygen anesthesia, followed by recovery and then roamed freely in its cage during the uptake period. […]
# [2] = test system: HEK293T:hFAP tumor xenografts; assay: Ex vivo biodistribution and blocking study in HEK293T:hFAP tumor-bearing mice; conditions: 1 h post-injection; for average kidney uptake: range given for the two tracers together; for tumor uptake: HEK293T:hFAP tumor; for average tumor uptake with co-injection of FAPI-04 / reduction of average tumor uptake by co-injection of FAPI-04: blocking, FAPI-04 250 µg co-injected
# Experimental: Biodistribution studies were conducted at 1 h post-injection with [^68Ga]Ga-AV02053 and [^68Ga]Ga-AV02070 in HEK293T:hFAP tumor-bearing mice, and the data are compared with those obtained previously using [^68Ga]Ga-FAPI-04 (Figure 4 and Figure 5 and Table S4). The results are consistent with the observations from their PET images. Except tumor and kidneys (1.35–1.85%ID/g), the average uptake values of [^68Ga]Ga-AV02053 and [^68Ga]Ga-AV02070 in all other collected organs/tissues were <0.6%ID/g. The tumor uptake values of [^68Ga]Ga-AV02053, [^68Ga]Ga-AV02070, and [^68Ga]Ga-FAPI-04 were 5.60 ± 1.12, 7.93 ± 1.88, and 12.5 ± 2.00%ID/g, respectively. […] This also led to higher tumor-to-blood, tumor-to-muscle and tumor-to-bone uptake ratios for [^68Ga]Ga-AV02053 (25.2 ± 1.97, 51.2 ± 19.8 and 38.1 ± 5.03, respectively) and [^68Ga]Ga-AV02070 (22.9 ± 10.1, 45.7 ± 9.88 and 34.3 ± 7.35, respectively) than [^68Ga]Ga-FAPI-04 (11.7 ± 2.04, 18.8 ± 4.09 and 3.93 ± 1.16, respectively) (p < 0.05).
# as §1
# For biodistribution studies, the mice were injected with the radiotracer (~2–4 MBq), as described above. For the blocking study, the mice were co-injected with 250 μg of FAPI-04. At 1 h post-injection, the mice were euthanized by CO2 inhalation. Blood was withdrawn by cardiac puncture, and organs/tissues of interest were collected, weighed, and counted using a Perkin Elmer (Waltham, MA, USA) Wizard2 2480 automatic gamma counter.
# [3] = LogD7.4 measurement, shake flask method (n-octanol/PBS pH 7.4); format: physicochemical; conditions: n-octanol / phosphate-buffered saline pH 7.4, shake flask
# Description: The lipophilicity of ^68Ga-labeled AV02053, AV02070, and FAPI-04 were estimated by measuring their LogD7.4 values using the shake flask method with n-octanol and phosphate-buffered saline (pH 7.4). The LogD7.4 values of [^68Ga]Ga-AV02053, [^68Ga]Ga-AV02070, and [^68Ga]Ga-FAPI-04 were −3.75 ± 0.16, −3.45 ± 0.10, and −1.02 ± 0.35, respectively. The values indicate that these ^68Ga-labeled tracers are hydrophilic, and the pyridine-based FAP-targeted tracers, [^68Ga]Ga-AV02053 and [^68Ga]Ga-AV02070, are more hydrophilic than [^68Ga]Ga-FAPI-04.
# The lipophilicity characteristics of the ^68Ga-labeled pyridine-based FAPIs were determined by calculating the logarithm of the distribution coefficient (logD) in n-octanol/phosphate-buffered saline (PBS) of pH 7.4. Purified ^68Ga-labeled tracer (50 µL) was added into a test tube containing 1 mL n-octanol and 1 mL PBS. The mixture was vortexed, followed by centrifugation for 5 min at 3000 rpm. The two layers were then collected separately, and the radioactivity was counted using a Perkin Elmer (Waltham, MA, USA) Wizard2 2480 automatic gamma counter. After adjusting the counts to background and calculating the ratio (D) of the activity of the organic to that of the aqueous phase, the logD values were then calculated.
# [4] = test system: HEK293T:hFAP tumor xenografts; design: method as in PMID 36770755; conditions: 1 h post-injection, cited from earlier work
smiles,measurement,setting,value
N#C[C@@H]1CCCN1C(=O)CNC(=O)c1ccncc1 [(pyridine-4-carbonyl)glycyl-(2S)-cyanopyrrolidine],IC50,FAP,0.063 µM
CN(CCN(C)c1ccc(C(=O)NCC(=O)N2CC(F)(F)C[C@H]2C#N)cn1)C(=O)CN1CCN(CC(=O)[O-])CCN(CC(=O)[O-])CCN(CC(=O)[O-])CC1.[Ga+3] [Ga-AV02053],IC50,recombinant human FAP,0.187 ± 0.052 µM
CN(CCN(C)c1cc(C(=O)NCC(=O)N2CC(F)(F)C[C@H]2C#N)ccn1)C(=O)CN1CCN(CC(=O)[O-])CCN(CC(=O)[O-])CCN(CC(=O)[O-])CC1.[Ga+3] [Ga-AV02070],IC50,recombinant human FAP,0.0171 ± 0.0046 µM
CN(CCN(C)c1ccc(C(=O)NCC(=O)N2CC(F)(F)C[C@H]2C#N)cn1)C(=O)CN1CCN(CC(=O)[O-])CCN(CC(=O)[O-])CCN(CC(=O)[O-])CC1.[68Ga+3] [[^68Ga]Ga-AV02053],excretion pathway,[1],excreted mainly through the renal pathway
same,average uptake in all other collected organs/tissues (except tumor and kidneys),[2],< 0.6 %ID/g
same,average uptake in other major organs with vs without co-injection of FAPI-04,[2],no significant difference
same,blood uptake,[2],0.22 ± 0.04 %ID/g
same,bone uptake,[2],0.14 ± 0.02 %ID/g
same,muscle uptake,[2],0.12 ± 0.05 %ID/g
same,tumor-to-blood uptake ratio,[2],25.2 ± 1.97
same,tumor-to-bone uptake ratio,[2],38.1 ± 5.03
same,tumor-to-muscle uptake ratio,[2],51.2 ± 19.8
same,average kidney uptake,[2],1.35–1.85 %ID/g
same,tumor uptake,[2],5.6 ± 1.12 %ID/g
same,average tumor uptake with co-injection of FAPI-04,[2],0.30 %ID/g
same,reduction of average tumor uptake by co-injection of FAPI-04,[2],95%
same,LogD7.4,[3],−3.75 ± 0.16
CN(CCN(C)c1cc(C(=O)NCC(=O)N2CC(F)(F)C[C@H]2C#N)ccn1)C(=O)CN1CCN(CC(=O)[O-])CCN(CC(=O)[O-])CCN(CC(=O)[O-])CC1.[68Ga+3] [[^68Ga]Ga-AV02070],excretion pathway,[1],excreted mainly through the renal pathway
same,average uptake in all other collected organs/tissues (except tumor and kidneys),[2],< 0.6 %ID/g
same,average uptake in other major organs with vs without co-injection of FAPI-04,[2],no significant difference
same,blood uptake,[2],0.36 ± 0.05 %ID/g
same,bone uptake,[2],0.23 ± 0.06 %ID/g
same,muscle uptake,[2],0.19 ± 0.10 %ID/g
same,tumor-to-blood uptake ratio,[2],22.9 ± 10.1
same,tumor-to-bone uptake ratio,[2],34.3 ± 7.35
same,tumor-to-muscle uptake ratio,[2],45.7 ± 9.88
same,average kidney uptake,[2],1.35–1.85 %ID/g
same,tumor uptake,[2],7.93 ± 1.88 %ID/g
same,average tumor uptake with co-injection of FAPI-04,[2],0.21 %ID/g
same,reduction of average tumor uptake by co-injection of FAPI-04,[2],97%
same,LogD7.4,[3],−3.45 ± 0.10
N#C[C@@H]1CC(F)(F)CN1C(=O)CNC(=O)c1ccnc2ccc(OCCCN3CCN(C(=O)CN4CCN(CC(=O)[O-])CCN(CC(=O)[O-])CCN(CC(=O)[O-])CC4)CC3)cc12.[68Ga+3] [[^68Ga]Ga-FAPI-04],blood uptake,[4]; obtained previously,1.07 ± 0.08 %ID/g
same,bone uptake,[4]; obtained previously,3.36 ± 1.09 %ID/g
same,muscle uptake,[4]; obtained previously,0.67 ± 0.05 %ID/g
same,tumor-to-blood uptake ratio,[4]; obtained previously,11.7 ± 2.04
same,tumor-to-bone uptake ratio,[4]; obtained previously,3.93 ± 1.16
same,tumor-to-muscle uptake ratio,[4]; obtained previously,18.8 ± 4.09
same,tumor uptake,"[4]; HEK293T:hFAP tumor, previously reported",12.5 ± 2.00 %ID/g
same,LogD7.4,[3],−1.02 ± 0.35

# Reference: PMC10057391, “Novel ^68Ga-Labeled Pyridine-Based Fibroblast Activation Protein-Targeted Tracers with High Tumor-to-Background Contrast” (Pharmaceuticals, 2023)
